Measurements from patent US20170239249A1, “QUINAZOLINE-BASED KINASE INHIBITORS” (Bristol-Myers Squibb Company, priority 2014, published 2017).

The compounds below were run against AAK1 (full length human) (Homo sapiens, UniProt Q2M2I8) (assay: HEK281 Cell-Based Assay (phospho-mu2 Western blot in HEK293F cells transfected with AAK1 and AP2M1)). Details: IC50 (nM), functional potency; inhibition of mu2 phosphorylation in HEK293F cells, 3 hours incubation, 5 concentrations.
Sequence of AAK1 (full length human) (Q2M2I8 1-863 isoform Q2M2I8-2): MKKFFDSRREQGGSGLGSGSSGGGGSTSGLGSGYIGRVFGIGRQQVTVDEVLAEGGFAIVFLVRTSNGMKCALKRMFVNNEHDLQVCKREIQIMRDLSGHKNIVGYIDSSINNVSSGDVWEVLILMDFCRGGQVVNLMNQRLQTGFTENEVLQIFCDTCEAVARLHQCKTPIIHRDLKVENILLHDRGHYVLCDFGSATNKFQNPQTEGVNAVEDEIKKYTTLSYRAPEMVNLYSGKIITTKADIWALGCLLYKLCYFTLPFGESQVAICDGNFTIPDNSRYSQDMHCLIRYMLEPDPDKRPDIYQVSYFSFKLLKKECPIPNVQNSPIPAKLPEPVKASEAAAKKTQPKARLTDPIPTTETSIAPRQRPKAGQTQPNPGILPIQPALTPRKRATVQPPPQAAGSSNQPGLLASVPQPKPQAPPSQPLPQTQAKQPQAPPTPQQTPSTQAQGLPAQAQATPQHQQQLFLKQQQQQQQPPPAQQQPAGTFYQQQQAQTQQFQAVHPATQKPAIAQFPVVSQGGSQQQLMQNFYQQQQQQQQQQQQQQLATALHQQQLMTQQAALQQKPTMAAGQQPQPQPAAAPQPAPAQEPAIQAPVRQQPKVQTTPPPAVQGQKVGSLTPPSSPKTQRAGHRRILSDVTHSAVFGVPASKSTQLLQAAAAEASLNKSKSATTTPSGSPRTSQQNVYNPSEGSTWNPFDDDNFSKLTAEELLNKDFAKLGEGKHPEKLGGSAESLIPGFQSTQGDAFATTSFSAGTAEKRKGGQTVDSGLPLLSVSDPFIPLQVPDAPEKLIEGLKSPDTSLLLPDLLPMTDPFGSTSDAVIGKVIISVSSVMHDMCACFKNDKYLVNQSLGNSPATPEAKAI
With CCc1nc(C(N)C2CCCCC2)nc2ccc(-c3ccncc3)cc12 (single isomer, unassigned; (+)) [Example 8, (+)-Cyclohexyl(4-ethyl-6-(pyridin-4-yl)quinazolin-2-yl)methanamine] the IC50 was 61 nM.
CCc1nc(C(N)C2CCCCC2)nc2ccc(-c3ccncc3)cc12 (single isomer, unassigned; (-)) [Example 7, (−)-Cyclohexyl(4-ethyl-6-(pyridin-4-yl)quinazolin-2-yl)methanamine] gave an IC50 of 8 nM.
CCc1nc(C(N)CC(C)C)nc2cc(OC)c(-c3cnco3)cc12 (single isomer, unassigned; enantiomer 1) [Example 86, 1-(4-Ethyl-7-methoxy-6-(oxazol-5-yl)quinazolin-2-yl)-3-methylbutan-1-amine (Enantiomer 1)] gave an IC50 of 87 nM.
Compound CCc1nc(C(N)CC(C)C)nc2cc(OC)c(-c3cnco3)cc12 (single isomer, unassigned; enantiomer 2) [Example 87, 1-(4-Ethyl-7-methoxy-6-(oxazol-5-yl)quinazolin-2-yl)-3-methylbutan-1-amine (Enantiomer 2)] has an IC50 of 13 nM.
CC(C)CC(N)c1ncc2cc(-c3cnco3)ccc2n1 (stereo not drawn) [Example 1, 3-Methyl-1-(6-(oxazol-5-yl)quinazolin-2-yl)butan-1-amine] showed an IC50 of 420 nM.
With Cc1nc(C(N)CC(C)C)nc2ccc(-c3cnco3)cc12 (stereo not drawn) [Example 2, 3-Methyl-1-(4-methyl-6-(oxazol-5-yl)quinazolin-2-yl)butan-1-amine] the IC50 was 170 nM.
For CCc1nc(C(N)CC(C)C)nc2ccc(-c3cnco3)cc12 (stereo not drawn) [Example 3, 1-(4-Ethyl-6-(oxazol-5-yl)quinazolin-2-yl)-3-methylbutan-1-amine], the IC50 was 77 nM.
CCCc1nc(C(N)CC(C)C)nc2ccc(-c3cnco3)cc12 (stereo not drawn) [Example 4, 3-Methyl-1-(6-(oxazol-5-yl)-4-propylquinazolin-2-yl)butan-1-amine] gave an IC50 of 5300 nM.
With CCc1nc(C(N)CC(C)C)nc2c(OC)cc(-c3cnco3)cc12 (stereo not drawn) [Example 5, 1-(4-Ethyl-8-methoxy-6-(oxazol-5-yl)quinazolin-2-yl)-3-methylbutan-1-amine] the IC50 was 75 nM.
Work on CCc1nc(C(N)CC(C)C)nc2ccc(-c3ccncc3OC)cc12 (stereo not drawn) [Example 6, 1-(4-Ethyl-6-(3-methoxypyridin-4-yl)quinazolin-2-yl)-3-methylbutan-1-amine] yielded an IC50 of 36 nM.
In the case of CCc1nc(C(N)CC2CCCCC2)nc2ccc(-c3ccncc3)cc12 (stereo not drawn) [Example 9, 2-Cyclohexyl-1-(4-ethyl-6-(pyridin-4-yl)quinazolin-2-yl)ethanamine], the IC50 is reported as 260 nM.
CCc1nc(CCC2CCCC2)nc2ccc(-c3ccncc3)cc12 [Example 10, 2-(2-Cyclopentylethyl)-4-ethyl-6-(pyridin-4-yl)quinazoline] showed an IC50 of 4800 nM.
For COc1c(-c2cnco2)ccc2nc(C(N)CC(C)C)ncc12 (stereo not drawn) [Example 11, 1-(5-Methoxy-6-(oxazol-5-yl)quinazolin-2-yl)-3-methylbutan-1-amine], the IC50 was 360 nM.
CC(C)CC(N)c1nc2ccc(-c3cnco3)cc2c(=O)[nH]1 (stereo not drawn) [Example 12, 2-(1-Amino-3-methylbutyl)-6-(oxazol-5-yl)quinazolin-4-ol] was tested, and the IC50 was 140 nM.
CC(C)CC(N)c1nc2ccc(-c3ccncc3)cc2c(=O)[nH]1 (stereo not drawn) [Example 13, 2-(1-Amino-3-methylbutyl)-6-(pyridin-4-yl)quinazolin-4-ol] showed an IC50 of 93 nM.
Work on COc1nc(C(N)CC(C)C)nc2ccc(-c3cnco3)cc12 (stereo not drawn) [Example 14, 1-(4-Methoxy-6-(oxazol-5-yl)quinazolin-2-yl)-3-methylbutan-1-amine] yielded an IC50 of 230 nM.
In the case of CCOc1nc(C(N)CC(C)C)nc2ccc(-c3cnco3)cc12 (stereo not drawn) [Example 15, 1-(4-Ethoxy-6-(oxazol-5-yl)quinazolin-2-yl)-3-methylbutan-1-amine], the IC50 is reported as 410 nM.
CNc1nc(C(N)CC(C)C)nc2ccc(-c3cnco3)cc12 (stereo not drawn) [Example 16, 2-(1-Amino-3-methylbutyl)-N-methyl-6-(oxazol-5-yl)quinazolin-4-amine] was tested, and the IC50 was 210 nM.
CC(C)CC(N)c1nc(N(C)C)c2cc(-c3cnco3)ccc2n1 (stereo not drawn) [Example 17, 2-(1-Amino-3-methylbut)-N,N-dimethyl-6-(oxazol-5-yl)quinazolin-4-amine] gave an IC50 of 360 nM.
CCN(CC)c1nc(C(N)CC(C)C)nc2ccc(-c3cnco3)cc12 (stereo not drawn) [Example 18, 2-(1-Amino-3-methylbutyl)-N,N-diethyl-6-(oxazol-5-yl)quinazolin-4-amine] gave an IC50 of 130 nM.
In the case of CC(C)CC(N)c1nc(N2CCCC2)c2cc(-c3cnco3)ccc2n1 (stereo not drawn) [Example 19, 3-Methyl-1-(6-(oxazol-5-yl)-4-(pyrrolidin-1-yl)quinazolin-2-yl)butan-1-amine], the IC50 is reported as 760 nM.
Compound CCNc1nc(C(N)CC(C)C)nc2ccc(-c3cnco3)cc12 (stereo not drawn) [Example 20, 2-(1-Amino-3-methylbutyl)-N-ethyl-6-(oxazol-5-yl)quinazolin-4-amine] has an IC50 of 850 nM.
CC(C)CC(N)c1nc(NCCO)c2cc(-c3cnco3)ccc2n1 (stereo not drawn) [Example 21, 2-((2-(1-Amino-3-methylbutyl)-6-(oxazol-5-yl)quinazolin-4-yl)amino)ethanol] was tested, and the IC50 was 1200 nM.
COCCNc1nc(C(N)CC(C)C)nc2ccc(-c3cnco3)cc12 (stereo not drawn) [Example 22, 2-(1-Amino-3-methylbutyl)-N-(2-methoxyethyl)-6-(oxazol-5-yl)quinazolin-4-amine] showed an IC50 of 1300 nM.
With CNc1nc(C(N)CC(C)C)nc2ccc(-c3ccncc3)cc12 (stereo not drawn) [Example 23, 2-(1-Amino-3-methylbutyl)-N-methyl-6-(pyridin-4-yl)quinazolin-4-amine] the IC50 was 79 nM.
CCNc1nc(C(N)CC(C)C)nc2ccc(-c3ccncc3)cc12 (stereo not drawn) [Example 24, 2-(1-Amino-3-methylbutyl)-N-ethyl-6-(pyridin-4-yl)quinazolin-4-amine] was tested, and the IC50 was 86 nM.
Compound CCN(CC)c1nc(C(N)CC(C)C)nc2ccc(-c3ccncc3)cc12 (stereo not drawn) [Example 25, 2-(1-Amino-3-methylbutyl)-N,N-diethyl-6-(pyridin-4-yl)quinazolin-4-amine] has an IC50 of 22 nM.
With COc1cnccc1-c1ccc2nc(C(N)CC(C)C)nc(N(C)C)c2c1 (stereo not drawn) [Example 26, 2-(1-Amino-3-methylbutyl)-6-(3-methoxypyridin-4-yl)-N,N-dimethylquinazolin-4-amine] the IC50 was 31 nM.
With CCN(CC)c1nc(C(N)CC(C)C)nc2ccc(-c3ccncc3OC)cc12 (stereo not drawn) [Example 27, 2-(1-Amino-3-methylbutyl)-N,N-diethyl-6-(3-methoxypyridin-4-yl)quinazolin-4-amine] the IC50 was 20 nM.
CCNc1nc(C(N)CC(C)C)nc2ccc(-c3ccncc3OC)cc12 (stereo not drawn) [Example 28, 2-(1-Amino-3-methylbutyl)-N-ethyl-6-(3-methoxypyridin-4-yl)quinazolin-4-amine] gave an IC50 of 380 nM.
For COc1cnccc1-c1ccc2nc(CCC(C)C)nc(N(C)C)c2c1 [Example 29, 2-Isopentyl-6-(3-methoxypyridin-4-yl)-N,N-dimethylquinazolin-4-amine], the IC50 was 54 nM.
CC(C)CC(N)c1nc(C#N)c2cc(-c3cnco3)ccc2n1 (stereo not drawn) [Example 30, 2-(1-Amino-3-methylbutyl)-6-(oxazol-5-yl)quinazoline-4-carbonitrile] showed an IC50 of 17 nM.
With CC(C)CCc1nc(C#N)c2cc(-c3cnco3)ccc2n1 [Example 31, 2-Isopentyl-6-(oxazol-5-yl)quinazoline-4-carbonitrile] the IC50 was 640 nM.
With COc1cc2nc(C(N)CC(C)C)nc(C#N)c2cc1-c1cnco1 (stereo not drawn) [Example 32, 2-(1-Amino-3-methylbutyl)-7-methoxy-6-(oxazol-5-yl)quinazoline-4-carbonitrile] the IC50 was 6 nM.
In the case of CC(C)CC(N)c1nc(C#N)c2cc(-c3ccncc3)ccc2n1 (stereo not drawn) [Example 33, 2-(1-Amino-3-methylbutyl)-6-(pyridin-4-yl)quinazoline-4-carbonitrile], the IC50 is reported as 14 nM.
With COc1cnccc1-c1ccc2nc(C(N)CC(C)C)nc(C#N)c2c1 (stereo not drawn) [Example 34, 2-(1-Amino-3-methylbutyl)-6-(3-methoxypyridin-4-yl)quinazoline-4-carbonitrile] the IC50 was 12 nM.
Work on COc1cc2nc(C(N)CC(C)C)nc(C#N)c2cc1-c1ccncc1 (stereo not drawn) [Example 35, 2-(1-Amino-3-methylbutyl)-7-methoxy-6-(pyridin-4-yl)quinazoline-4-carbonitrile] yielded an IC50 of 68 nM.
Work on COc1cc2nc([C@H](N)CC(C)C)ncc2cc1-c1cnco1 [Example 36, (R)-1-(7-Methoxy-6-(oxazol-5-yl)quinazolin-2-yl)-3-methylbutan-1-amine] yielded an IC50 of 113 nM.
COc1nc(CCC(C)C)nc2ccc(-c3cn[nH]c3)cc12 [Example 37, 2-Isopentyl-4-methoxy-6-(1H-pyrazol-4-yl)quinazoline] gave an IC50 of 1010 nM.
With COc1nc(CCC(C)C)nc2ccc(-c3ccncc3)cc12 [Example 38, 2-Isopentyl-4-methoxy-6-(pyridin-4-yl)quinazoline] the IC50 was 1070 nM.
Work on CNc1nc(CCC(C)C)nc2ccc(-c3cnco3)cc12 [Example 39, 2-Isopentyl-N-methyl-6-(oxazol-5-yl)quinazolin-4-amine] yielded an IC50 of 1140 nM.
For CC(C)CCc1nc(N(C)C)c2cc(-c3cnco3)ccc2n1 [Example 40, 2-Isopentyl-N,N-dimethyl-6-(oxazol-5-yl)quinazolin-4-amine], the IC50 was 412 nM.
COc1nc(CCC(C)C)nc2ccc(-c3cnco3)cc12 [Example 41, 5-(2-Isopentyl-4-methoxyquinazolin-6-yl)oxazole] showed an IC50 of 3150 nM.
In the case of CC(C)CCc1nc2ccc(-c3cnco3)cc2c(=O)[nH]1 [Example 42, 2-Isopentyl-6-(oxazol-5-yl)quinazolin-4(3H)-one], the IC50 is reported as 49 nM.
Work on CSc1nc(CCC(C)C)nc2ccc(-c3cnco3)cc12 [Example 43, 5-(2-Isopentyl-4-(methylthio)quinazolin-6-yl)oxazole] yielded an IC50 of 159 nM.
CC(C)CCc1nc(NCCN)c2cc(-c3cnco3)ccc2n1 [Example 44, N^1-(2-Isopentyl-6-(oxazol-5-yl)quinazolin-4-yl)ethane-1,2-diamine] showed an IC50 of 2010 nM.
With CCc1nc(CCC(C)C)nc2ccc(-c3ccncc3)cc12 [Example 45, 4-Ethyl-2-isopentyl-6-(pyridin-4-yl)quinazoline] the IC50 was 400 nM.
In the case of CC(C)CCc1nc(C(C)C)c2cc(-c3ccncc3)ccc2n1 [Example 46, 2-Isopentyl-4-isopropyl-6-(pyridin-4-yl)quinazoline], the IC50 is reported as 1390 nM.
